One assay concerns gut bifidobacteria. The following applies: IBS patients; cited from earlier work.
A further assay relates to Lactobacillus sp. The assay can be described thus: Prebiotic activity with Lactobacillus sp. culture (total viable count, pH, optical density after 24 hours incubation). It counts as cell-based. The method, then:
(§1) Polyvinyl Alcohol (PVA)/Inulin nanofibers are manufactured using electrospinning technique and tested for their prebiotic activity with Lactobacillus sp. and antibacterial activity with E. coli and S. aureus. After characterization and cross-linking of the produced PVA/Inulin Electrospun composite nanofibers (CNF), they were tested for their prebiotic activity with Lactobacillus sp. by viable count, optical density, pH and growth curve, and antibacterial activity with E. coli and S. aureus, by the cork-borer method, measuring the inhibition zone and the inhibition curve.
FIGS. 2A-C show according to an exemplary embodiment of the invention in FIG. 2A Total viable count, FIG. 2B pH, and FIG. 2C Optical density of Lactobacillus sp. culture containing PVA electrospun Nanofibers, inulin solution, PVA/Inulin electrospun CNFs, and water after 24 hours of incubation.
Prebiotic activity was carried out using Lactobacillus sp. to assess the growth activity by calculating the i) total viable counts, ii) pH, iii) optical density (OD), and iv) growth curve.
The pH and the OD of the culture inoculated with the tested material were measured before incubation and after 24 hours incubation. PVA/Inulin electrospun CNFs solution decreased the pH to 5.7 compared to 6.3 for the control.

A further assay has as its system E. coli. In words: Antibacterial activity, cork-borer method, inhibition zone with E. coli. It counts as cell-based. Here is the method: as §1
(§2) FIGS. 4A-B show according to an exemplary embodiment of the invention in FIG. 4A an inhibition zone of PVA electrospun Nanofibers, inulin solution, PVA/Inulin electrospun CNFs, antibiotic and water with E. coli, in FIG. 4B an inhibition zone of PVA electrospun Nanofibers, inulin solution, PVA/Inulin electrospun CNFs, antibiotic and water with S. aureus.

The test system of another assay is S. aureus. In words: Antibacterial activity, cork-borer method, inhibition zone with S. aureus. It counts as cell-based. Here is the method: as §1, §2
For assay [1], the system named is Bifidobacterium bifidum culture. The following applies: inulin extracted from artichoke; cited from earlier work.
Assay [2] has as its system bifidobacteria and lactobacillus. The conditions noted are these: in vitro; cited from earlier work.

Turning to galactooligosaccharides, in the assay on gut bifidobacteria, the “effectiveness as a prebiotic” value is on record as “effective as a prebiotic”.

Regarding inulin [inulin solution], in the assay with Lactobacillus sp. (after 24 hours incubation, control 6.3), the “pH of the culture” value was found to be 6.2. In addition, the “lactobacillus growth (total viable count)” value in the assay with Lactobacillus sp. (after 24 hours of incubation) is listed as 2.9×10^3 cfu/mL. For the same substance, the inhibition zone result in the assay with E. coli and in the assay on S. aureus was “didn't show any visible zone of inhibition” each time. Further, the “growth of B. bifidum” value in assay [1] is listed as “increased the growth”. Further, in assay [2], the prebiotic effectiveness entry was “clear prebiotic effectiveness”.

With oligofructose [oligofructose (OF)], the prebiotic effectiveness entry in assay [2] is listed as “clear prebiotic effectiveness”.

The values are drawn from patent US20180305524A1, “Inulin Nanofibers” (The American University in Cairo, priority 2014, published 2018).
